≈ marks a conversion by molar mass, not a printed value.

The test system of assay [1] is K. pneumoniae Kp6. The experiment in a line: BMD susceptibility test. The format is cell-based, Klebsiella pneumoniae. The settings on record: unit assumed.
The subject of assay [2] is K. pneumoniae Kp6. The experiment in a line: FaAST (FDAA metabolic labeling). Type of assay: cell-based, Klebsiella pneumoniae. The settings on record: unit assumed. Here is the method: (§1) The specific experimental steps are as follows: • 1. Take the colony to be tested that has been cultured overnight on the plate and fully mix it in normal saline to make a uniform bacterial solution. Dilute it into CAMHB medium to make a bacterial solution with OD600=0.05. • 2. Add 45 μl antibiotic solutions to be tested of different concentrations to 96-well plates (see Table 3 for antibiotic concentration gradient settings). • 3. Add 50 μl of bacterial solution prepared in Step 1 to the 96-well plate and mix well. • 4.5 μl of 10 mM Cy5-DAA probe was added to each well (final concentration was 0.15 mM, and its structure was shown in FIG. 1). After mixing, the probe was incubated for 2 hours in the dark. • 5. After dilution with 200 μl PBS solution, the fluorescence intensity of each sample was detected by flow cytometry.

Assay [3] deals with Ec ATCC 25922. Kind of assay: FaAST (FDAA metabolic labeling). Type of assay: cell-based, Escherichia coli. The note with it: unit assumed. Here is the method:
as §1, with “cytometry. The flow detection results are shown in the attached FIG. 4-5, showing the curve of antibiotic concentration gradient and fluorescence intensity, and the MIC (minimum inhibitory concentration) is obtained by referring to this curve.” for “cytometry.”
(§2) Antibiotic resistant strains are shown in bold in the table below.

For assay [4], the system named is E. coli Ec11. The experiment in a line: FaAST (FDAA metabolic labeling). Type of assay: cell-based, Escherichia coli. The settings on record: unit assumed. Here is the method:
as §1, with “cytometry. The flow detection results are shown in the attached FIG. 4-5, showing the curve of antibiotic concentration gradient and fluorescence intensity, and the MIC (minimum inhibitory concentration) is obtained by referring to this curve.” for “cytometry.”
as §2

The subject of assay [5] is Ec ATCC 25922. The note with it: cited from earlier work.
In assay [6] the test system is E. coli Ec11. The experiment in a line: BMD susceptibility test. The format is cell-based, Escherichia coli. The settings on record: unit assumed.
The subject of assay [7] is Ec ATCC 25922. Kind of assay: BMD susceptibility test. The format is cell-based, Escherichia coli. The settings on record: unit assumed.
Assay [8] concerns S. aureus ST398. The experiment in a line: Vitek 2 drug sensitivity test. The format is cell-based, Staphylococcus aureus.
Assay [9] concerns E. faecalis ATCC29212. The note with it: cited from earlier work.
Assay [10] concerns E. faecium Ef26. Kind of assay: BMD susceptibility test. The format is cell-based, Enterococcus faecium. The note with it: unit assumed.
Assay [11] deals with E. faecium Ef26. Kind of assay: FaAST (FDAA metabolic labeling method). The format is cell-based, Enterococcus faecium. The note with it: unit assumed. Here is the method:
(§3) Take the colony to be tested that has been cultured overnight on the plate and fully mix it in normal saline to make a uniform bacterial solution. Dilute it into Cation-Adjusted Mueller Hinton Broth (CAMHB) culture medium to make a bacterial solution with OD600=0.05. • 2. Add 45 μl antibiotic solutions of different concentrations to 96-well plates (see Table 1 for antibiotic concentration gradient settings). • 3. Add 50 μl of the bacterial solution prepared in step 1 to the 96-well plate and mix well. • 4. Add 5 μl of 10 mM Cy5-DAA probe (final concentration 0.15 mM, see FIG. 1 for its structure) into each well, mix well, and cultivate in dark for 2 hours. • 5. Add 200 μl After PBS solution is diluted, the fluorescence intensity of each sample is detected by flow cytometry. The flow detection results are shown in FIG. 4-5, showing the curve of the change of antibiotic concentration gradient and fluorescence intensity. The MIC (minimum inhibitory concentration) can be obtained by referring to this curve.
(§4) Bacteria with antibiotic resistance are shown in bold in the following table.

Assay [12] has as its system S. aureus ST398. The experiment in a line: FDAA metabolic labeling susceptibility test (Cy5-DAA probe, flow cytometry). The format is cell-based. The note with it: Staphylococcus aureus; S. aureus ST398; Cy5-DAA probe, 2 hours; read-out: MIC, FDAA. Here is the method:
as §3

The subject of assay [13] is S. aureus ST59. The assay is described as above. The format is cell-based. The note with it: Staphylococcus aureus; S. aureus ST59; Cy5-DAA probe, 2 hours; read-out: MIC, FDAA. Here is the method: as §3
For assay [14], the system named is S. aureus ST59. The experiment in a line: Vitek 2 drug sensitivity test. Type of assay: cell-based, Staphylococcus aureus.
Assay [15] relates to E. faecalis ATCC29212. The experiment in a line: BMD susceptibility test. Type of assay: cell-based, Enterococcus faecalis. The settings on record: unit assumed.
Assay [16] concerns E. faecalis ATCC29212. Kind of assay: FaAST (FDAA metabolic labeling method). The note with it: unit assumed. Type of assay: cell-based, Enterococcus faecalis. As to the method: as §3, §4
Assay [17] has as its system E. coli Ec13. The experiment in a line: BMD susceptibility test. The format is cell-based, Escherichia coli. The settings on record: unit assumed.
Assay [18] concerns K. pneumoniae Kp9. Kind of assay: FaAST (FDAA metabolic labeling). The format is cell-based, Klebsiella pneumoniae. The settings on record: unit assumed. Here is the method: as §1
Assay [19] has as its system K. pneumoniae Kp9. Kind of assay: BMD susceptibility test. The settings on record: unit assumed. Type of assay: cell-based, Klebsiella pneumoniae.
For assay [20], the system named is E. coli Ec13. The experiment in a line: FaAST (FDAA metabolic labeling). Type of assay: cell-based, Escherichia coli. The note with it: unit assumed. Here is the method:
as §1
Wherever Sensibility is given: key: S: Drug sensitive; R: Drug resistance.

`CO/N=C(\C(=O)N[C@@H]1C(=O)N2C(C(=O)O)=C(COC(N)=O)CS[C@H]12)c1ccco1` [Cefuroxime]: the values for the BMD (MIC) in assay [1], in assay [6] and in assay [7] were 2 µg/mL, 4 µg/mL and 4 µg/mL, respectively. For the same compound, the FaAST (MIC) in [2] was 4 µg/mL; in assay [3], 8 µg/mL; in assay [4] it was 8 µg/mL. Further, the “CLSI QC range” value in [5] is 2-8.

For `CC[C@H]1OC(=O)[C@H](C)[C@@H](O[C@H]2C[C@@](C)(OC)[C@@H](O)[C@H](C)O2)[C@H](C)[C@@H](O[C@@H]2O[C@H](C)C[C@H](N(C)C)[C@H]2O)[C@](C)(O)C[C@@H](C)C(=O)[C@H](C)[C@@H](O)[C@]1(C)O` [Erythromycin, erythromycin], the Sensibility result in [8] is given as “S”; in [14], “R”. Further, the MIC (usually the least concentration at which growth counts as inhibited) in assay [8] (Staphylococcus aureus) is at most 0.25 µg/mL; in assay [12], 0.5 µg/mL (≈ 0.681 µM); in [13], 8 µg/mL (≈ 10.9 µM); in assay [14] (Staphylococcus aureus) it was at least 8 µg/mL. Besides, the “CLSI QC range” value in assay [9] was 1-4. The BMD (MIC) in [10] is at most 0.25 µg/mL; in [15], 2 µg/mL. The figures for the FaAST (MIC) in assay [11] and in assay [16] were at most 0.25 µg/mL and 2 µg/mL, respectively.

Turning to Polymyxin B, the BMD (MIC) was 8 µg/mL in assay [17]; 0.5 µg/mL in assay [1]; 2 µg/mL in assay [6]; 2 µg/mL in assay [7]; 16 µg/mL in assay [19]. Moreover, the FaAST (MIC) is 32 µg/mL in [18]; 1 µg/mL in assay [2]; 2 µg/mL in [3]; 2 µg/mL in [4]; 8 µg/mL in assay [20]. Moreover, in [5], the “CLSI QC range” value is 0.25-2.

Take `CC1(C)S[C@@H]2[C@H](NC(=O)Cc3ccccc3)C(=O)N2[C@H]1C(=O)O` [Penicillin G, penicillin G]: in [9], the “CLSI QC range” value was 1-4. The figures for the BMD (MIC) in [10] and in assay [15] were 64 µg/mL and 2 µg/mL, respectively. Also, the FaAST (MIC) in assay [11] is 32 µg/mL; in [16] it was 4 µg/mL.

The record behind these values is patent US20240240224A1, “FLUORESCENT D-TYPE AMINO ACID METABOLISM MARKER-BASED METHOD FOR DETECTING ANTIBACTERIAL DRUG SENSITIVITY TEST” (priority 2020, published 2024).
